From US20040057908A1, “Oral compositions and use thereof” (priority 2003, published 2004) come the findings set out here.

In brackets after ≈: the same amount, converted by molar mass. Several values for one entry are separate records, joined by “and”; a condition that tells them apart may be missing. Identical values can stand only once. Like-named read-outs stand apart in the source and are kept apart here. Marks after values point to notes of the source that are not given here.

One assay has as its system dental caries. As to the kind of experiment: Rat caries experiment: caries scores (Larson's modification of Keyes' system). The assay is classed as in vivo, Sprague Dawley rats. The note with it: for smooth-surface caries severity scores versus control (in words): Ds and Dm levels, tt-farnesol Dm only. The method, then: (§1) Seven litters of ten female Sprague Dawley rats aged 14 days were purchased with their dams from Charles River (Kingston, N.Y., USA). […] The experiment proceeded for five weeks, at which time the animals were killed by CO2 asphyxiation. The lower left jaw was aseptically dissected, suspended in 5.0 mL of sterile saline solution, and sonicated (three 10-second pulses with 5-second intervals at 30 watts, Branson Sonifier 450). The suspension was plated on mitis salivarius agar plus streptomycin to estimate S. sobrinus population and on blood agar to determine total cultivable flora (TCF). […] The determination of caries score was blind by codification of the jaws and was done by 1 calibrated examiner. […] The level of significance was 5%.

In assay [1] the test system is T1, streptococcal GTFs.
T1 construct: Streptococcus milleri KSB8, which harbors the gtfB gene from S. mutans GS-5 (for GTF B production)
The experiment in a line: GTF activity adsorbed onto sHA surface, all GTFs stated together. It is filed as biochemical, Streptococcus mutans, S. sanguinis. The note with it: 1.33 mM. The method, then: Glucosyltransferase activity was measured by the incorporation of [^14C-glucose] from labeled sucrose (NEN Research Products, Boston, Mass.) into glucans (Germaine et al., 1974; Venkitaraman et al., 1995). The GTF enzyme added to each sample for all assays was equivalent to the amount required to incorporate 1.0-1.5 μmol of glucose over the four hours reaction (1.0-1.5 units).
For surface assays, the GTFs were adsorbed to hydroxyapatite beads coated with clarified whole saliva (free of GTF activity), as detailed elsewhere (Koo et al., 2000c; Schilling and Bowen, 1988, Venkitaraman et al., 1995). The saliva-coated hydroxyapatite (sHA) beads were exposed to sufficient enzyme to saturate the surface as determined experimentally. Following the adsorption of the enzyme, the beads were washed 3 times with buffer to remove the loosely bound material and exposed to 300 μl of the two-fold dilution series of test compounds (or control) for 30 min. at the same concentrations described above. The beads were washed and exposed to 300 μl [^14C-glucose]-sucrose substrate (100.0 mmol/l sucrose, final concentration). The radiolabeled glucan formed was collected and quantified by scintillation counting (Germaine et al., 1974; Venkitaraman et al., 1995). All the solution and surface assays were done in quadruplicate in at least 3 different experiments. […]

For assay [2], the system named is Streptococcus sobrinus 6715. As to the kind of experiment: Rat caries experiment: S. sobrinus recovered from the jaws. It is filed as in vivo, Sprague Dawley rats. The note with it: rats, topical twice daily, five weeks; 1.33 mM (fluoride 250 ppm); means (SD). How it is done: as §1
In assay [3] the test system is T1, streptococcal GTFs. The experiment in a line: GTF activity in solution, all GTFs (B, C, D, Ss) stated together. It is filed as biochemical, Streptococcus mutans, S. sanguinis. As to conditions: for inhibitory effects on the activities of GTFs (in words): 1.33 mM (fluoride 250 ppm), solution and sHA surface. How it is done:
The GTF enzyme added to each sample for all assays was equivalent to the amount required to incorporate 1.0-1.5 μmol of glucose over the four hours reaction (1.0-1.5 units).
The samples were incubated 37° C. with rocking for 4 h.
For this assay, a one-way layout experimental design was used in 4×2×7 factorial scheme (enzyme×state×dose). An analysis of variance was carried out and qualitative treatments were compared using Tukey test at level of 5% of significance (p<0.05). A non-linear regression was applied in order to evaluate effects of different concentrations.

Another assay deals with mutans streptococci. The experiment in a line: Time-kill studies, broth macrodilution. It is filed as cell-based, S. mutans GS-5 and UA159, S. sobrinus 6715. The method, then:
For the compound with highest antibacterial activity, the time kill studies were performed by broth macrodilution method (National Committee for Clinical Laboratory Standards, Tentative standard M26-T, 1992). The starting inoculum of S. mutans GS-5 and UA159, and S. sobrinus 6715 was 1-5×10^6 CFU/ml. The final concentration of the antibacterial agent was 4 times MIC (or MBC values). Tubes containing the microorganisms and the test compound in TSB were incubated in 5% CO2 at 37° C.; samples were removed for viable counts at 0, 30 min., 1, 2, 4, 8, and 24 h. Serial dilutions (10^−1 to 10^−4) were prepared in sterile 0.9% sodium chloride solution. The diluted sample (50 μl) was plated on to tryptic soy agar by means of a spiral plater (Autoplate model 3000, Spiral Biotech, Inc., Bethesda, Md.). The plates were incubated in 5% CO2 at 37° C. for 48 h, when the number of colonies was determined. Killing curves were constructed by plotting log10 CFU/ml versus time over 24 h. All the assays were done in quadruplicate on at least 3 occasions. Bactericidal effect was defined as a ≧3 log10 decreases in the CFU/ml from the original inoculum. The potential for drug carry-over to produce falsely low viability counts was minimized by dilution of inocula and plating of small volumes of diluted samples (50 μl). In addition, no evidence of drug carry-over was detected at the lowest dilution used for plating (10^−1).

For assay [4], the system named is S. mutans UA159 and S. sobrinus 6715 biofilms. The experiment in a line: Time-kill assay in 5-day-old biofilms. The assay is classed as cell-based. As to conditions: for decrease in viable counts of biofilms: 1.33 mM, after 2-4 h incubation. How it is done: Cells of mutans streptococci were grown in tryptone-yeast extract broth with addition of 1% (w/v) sucrose at 37° C. and 5% CO2. […] The killing assays were performed according to Phan et al. (2000). […] The homogenized suspension was serially diluted (10^1 to 10^4) and plated on tryptic soy agar or blood agar by means of a spiral plater (Autoplate model 3000, Spiral Biotech, Inc., Bethesda, Md). […] Killing curves were constructed by plotting log10 CFU/ml versus time over 4 h. All the assays were carried out in quadruplicate on at least 3 different occasions. Bactericidal effect was defined as a ≧3 log10 decreases in the CFU/ml from initial viable counts, at time zero. The potential for drug carry-over to produce falsely low viability counts was minimized by dilution of inocula and plating of small volumes of diluted samples (50 μl).

Assay [5] has as its system Mutans Streptococci Strains. As to the kind of experiment: MIC and MBC, broth dilution, all strains stated together. The assay is classed as cell-based, S. mutans (GS-5 and UA159) and S. sobrinus 6715. As to conditions: Streptococcus mutans; for MIC: read-out: MIC. The method, then:
(§2) The minimum inhibitory concentration (MIC) and minimum bactericidal concentration (MBC) were determined for each test compound according to the National Committee for Clinical Laboratory Standards guidelines (Tentative standard M26-T, 1992; NCCLS Publication No. M7-A5, 2000) and Koo et al. (2000b). The broth microdilution and macrodilution methods (in TSB) were used for the antibacterial tests. The starting inoculum was 5×10^5 CFU/ml and the concentrations of test compounds ranged from 15.6 to 500 μM (two-fold dilutions). The MICs and MBCs were determined in quadruplicate in at least 3 different experiments.
Background: Dilution methods test growth across graded concentrations, often in twofold steps.

In the next assay the test system is S. mutans strains. As to the kind of experiment: MIC and MBC, broth dilution, S. mutans strains stated together. The assay is classed as cell-based, S. mutans (GS-5 and UA159). How it is done: as §2
The next assay relates to streptococci. The experiment in a line: Membrane disruption seen in the phase-contrast microscope. The assay is classed as cell-based.
Assay [6] relates to Streptococcus mutans GS-5. As to the kind of experiment: MIC and MBC, broth dilution. It is filed as cell-based. The method, then:
as §2

For assay [7], the system named is Streptococcus sobrinus 6715. As to the kind of experiment: MIC and MBC, broth dilution. It is filed as cell-based. The method, then: as §2
For assay [8], the system named is Streptococcus mutans UA 159. The experiment in a line: MIC and MBC, broth dilution. The assay is classed as cell-based. How it is done: as §2
For the next assay, the system named is biofilms. As to the kind of experiment: Formation of biofilms (continued research). It is filed as cell-based.

As a reminder, the MIC is the lowest concentration found to suppress growth. For orientation: MBC means the smallest concentration meeting the test's criterion for killing. Lower therefore signals greater bactericidal potency.

Regarding `[H]/N=C(\N/C(=N/[H])NCCCCCCNC(=N)NC(=N)Nc1ccc(Cl)cc1)Nc1ccc(Cl)cc1` [Chlorhexidine, chlorhexidine, reference compound], the “smooth-surface caries severity scores versus control (in words)” value with dental caries (p<0.05) is “significantly lower”. In the assay on dental caries (rats, topical twice daily, five weeks), the “smooth surface caries, Keyes's score” value was 2.0±1.9. Besides, the “reduction of the incidence of smooth surface caries compared to control” value with dental caries (rats, topical twice daily, five weeks, p<0.05) is given as 75%. Further, in the assay on dental caries (rats, p<0.05), the “incidence and severity of sulcal-surface caries (in words)” value is on record as “reduced”. Further, the “inhibition of GTFs on a surface” value in the assay with streptococcal GTFs [1] is on record as 10-20%. Moreover, the “Infection by S. sobrinus, %” value in assay [2] is reported as 34.1 (10.8)^b %. In addition, the “inhibition of GTFs in solution” value with streptococcal GTFs [3] (1.33 mM) is reported as 30-45%. Besides, the “inhibitory effects on the activities of GTFs (in words)” value with streptococcal GTFs [3] is reported as “either negligible or moderate inhibitory effects”. The “incubation time to bactericidal effects” value with mutans streptococci (8.9 μM (MBC), mutans streptococci strains) is 8 h. The “antibacterial activity against mutans streptococci biofilms (in words)” value in assay [4] (1.33 mM (fluoride 250 ppm)) was “not bactericidal”. Moreover, in assay [4], the “decrease in viable counts of biofilms” value was 2-3 log10 CFU/ml. In addition, the MIC in assay [5] (all strains tested (S. mutans GS-5, UA159, S. sobrinus 6715)) lay within 1.1 to 2.2 µM; in assay [5] (all strains tested) it was 1 to 2 µg/mL. The MBC in assay [5] (mutans streptococci strains) is 8.9 µM and 8 µg/mL.
Consider `CC(C)=CCC/C(C)=C/CC/C(C)=C/CO` [tt-Farnesol], for which the “smooth-surface caries severity scores versus control (in words)” value in the assay with dental caries (p<0.05) is “significantly lower”. Besides, the MBC was 500 μM and 112 μg/ml against S. mutans strains; 500 µM (≈ 111 µg/mL) in assay [6]; 56 µg/mL in assay [7] (S. sobrinus 6715); 250 µM in [7] (Streptococcus sobrinus 6715); 500 µM (≈ 111 µg/mL) in assay [8]. In addition, the MIC is 125 μM and 28 μg/ml in the assay on S. mutans strains; 125 µM (≈ 27.8 µg/mL) in [6]; 14 µg/mL in [7] (S. sobrinus 6715); 62.5 µM in [7] (Streptococcus sobrinus 6715); 125 µM (≈ 27.8 µg/mL) in assay [8]. Further, the “Infection by S. sobrinus, %” value in [2] is recorded as 44.8 (8.2)^a %. Further, in the assay on streptococcal GTFs [3], the “inhibitory effects on the activities of GTFs (in words)” value is “either negligible or moderate inhibitory effects”. For the same compound, the “effects on enzyme activity (GTFs)” value in the assay on streptococcal GTFs [3] (1.33 mM, solution or surface not specified) was 10-20%. Further, the “concentration giving visible membrane disruption of streptococci” value in the assay with streptococci is recorded as over 10 mM. For the same compound, the “incubation time to bactericidal effects (≧3 log decrease in CFU/ml)” value in the assay on mutans streptococci (four times the MIC (or MBC), S. sobrinus 6715 and S. mutans strains) is 4-8 h. Besides, the “reduction of viable counts” value in the assay with mutans streptococci (four times the MIC (or MBC), within 30 min. to 1 h of incubation) is listed as 1 log of CFU/ml. Also, the “decrease in viable counts of biofilms” value in assay [4] came out at 1 log10 CFU/ml. The “formation of biofilms (in words)” value in the assay with biofilms was “inhibits formation of biofilms”.
